{
  "source": "patent US20060069132A1",
  "about": "“Azolecarboxamide herbicides” (priority 2004, published 2006)",
  "key": {"southern sandbur": {"test_system": "southern sandbur", "assay": "Test E pre-/postemergence herbicide test", "type": "in vivo, Cenchrus echinatus", "details": "Preemergence", "outline": "(§1)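 Greenhouse response scored visually 12 to 14 days after treatment versus controls, 0 meaning no effect and 100 complete control. Compounds, formulated with surfactant in a non-phytotoxic solvent blend, were sprayed either preemergence after sowing or postemergence at the 1- to 4-leaf stage (2 to 18 cm).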"}, "annual bluegrass": {"test_system": "annual bluegrass", "assay": "Test E pre-/postemergence herbicide test", "type": "in vivo, Poa annua", "details": "Preemergence", "outline": "as §1"}, "barnyardgrass": {"test_system": "barnyardgrass", "assay": "Test E pre-/postemergence herbicide test", "type": "in vivo, Echinochloa crus-galli", "details": "Preemergence", "outline": "as §1"}, "common groundsel": {"test_system": "common groundsel", "assay": "Test E pre-/postemergence herbicide test", "type": "in vivo, Senecio vulgaris", "details": "Preemergence", "outline": "as §1"}, "downy bromegrass": {"test_system": "downy bromegrass", "assay": "Test E pre-/postemergence herbicide test", "type": "in vivo, Bromus tectorum", "details": "Preemergence", "outline": "as §1"}, "Surinam grass": {"test_system": "Surinam grass", "assay": "Test E pre-/postemergence herbicide test", "type": "in vivo, Urochloa decumbens", "details": "Preemergence", "outline": "as §1"}, "wild oat": {"test_system": "wild oat", "assay": "Test C postemergence herbicide test", "type": "in vivo, Avenafatua", "outline": "(§2)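 After a postemergence application at 1 to 4 leaves (plants 2–18 cm high), or at 2 leaves for barnyardgrass in flooded paddy, plants stayed in the greenhouse for 12 to 14 days. Damage was then judged visually relative to control plants, with 100 indicating complete control.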"}, "common ragweed": {"test_system": "common ragweed", "assay": "Test E pre-/postemergence herbicide test", "type": "in vivo, Ambrosia elatior", "details": "Preemergence", "outline": "as §1"}, "mustard": {"test_system": "mustard", "assay": "Test E pre-/postemergence herbicide test", "type": "in vivo, Brassica nigra", "details": "Preemergence", "outline": "as §1"}, "prickly sida": {"test_system": "prickly sida", "assay": "Test E pre-/postemergence herbicide test", "type": "in vivo, Sida spinosa", "details": "Preemergence", "outline": "as §1"}, "common purslane": {"test_system": "common purslane", "assay": "Test E pre-/postemergence herbicide test", "type": "in vivo, Portulaca oleracea", "details": "Preemergence", "outline": "as §1"}, "Italian ryegrass": {"test_system": "Italian ryegrass", "assay": "Test C postemergence herbicide test", "type": "in vivo, Lolium multiflorum", "outline": "as §2"}, "canarygrass": {"test_system": "canarygrass", "assay": "Test C postemergence herbicide test", "type": "in vivo, Phalaris minor", "outline": "as §2"}, "chickweed": {"test_system": "chickweed", "assay": "Test C postemergence herbicide test", "type": "in vivo, Stellaria media", "outline": "as §2"}, "[1]": {"details": "125 g ai/ha, scale 0 (no effect) to 100 (complete control)"}, "[2]": {"details": "250 g ai/ha, scale 0 (no effect) to 100 (complete control)"}, "[3]": {"details": "500 g ai/ha, scale 0 (no effect) to 100 (complete control)"}, "[4]": {"details": "Postemergence, 500 g ai/ha, scale 0 to 100"}, "[5]": {"details": "Postemergence, 250 g ai/ha, scale 0 to 100, 0 no effect, 100 complete control"}, "[6]": {"details": "postemergence, 125 g ai/ha, scale 0 to 100"}, "[7]": {"details": "postemergence, 62 g ai/ha, scale 0 to 100"}},
  "data": [
    {"smiles": "CCNC(=O)c1cccc(NC(=O)c2cc(C(C)(C)C)nn2CC)n1", "note": "[Compound 144]", "values": [
      {"measurement": "Plant response rating, Sandbur", "setting": "southern sandbur; 62 g ai/ha, scale 0 to 100", "value": 10},
      {"measurement": "Plant response rating, Sandbur", "setting": "southern sandbur; [1]", "value": 30},
      {"measurement": "Plant response rating, Sandbur", "setting": "southern sandbur; [2]", "value": 30},
      {"measurement": "Plant response rating, Sandbur", "setting": "southern sandbur; [3]", "value": 60},
      {"measurement": "Plant response rating, Bluegrass", "setting": "annual bluegrass; 62 g ai/ha, scale 0 to 100", "value": 80},
      {"measurement": "Plant response rating, Bluegrass", "setting": "annual bluegrass; [1]", "value": 90},
      {"measurement": "Plant response rating, Bluegrass", "setting": "annual bluegrass; [2]", "value": 100},
      {"measurement": "Plant response rating, Bluegrass", "setting": "annual bluegrass; [3]", "value": 100},
      {"measurement": "Plant response rating, Barnyardgrass", "setting": "barnyardgrass; 62 g ai/ha, scale 0 to 100", "value": 30},
      {"measurement": "Plant response rating, Barnyardgrass", "setting": "barnyardgrass; [1]", "value": 60},
      {"measurement": "Plant response rating, Barnyardgrass", "setting": "barnyardgrass; [2]", "value": 80},
      {"measurement": "Plant response rating, Barnyardgrass", "setting": "barnyardgrass; [3]", "value": 90},
      {"measurement": "Plant response rating, Groundsel", "setting": "common groundsel; 62 g ai/ha, scale 0 to 100", "value": 10},
      {"measurement": "Plant response rating, Groundsel", "setting": "common groundsel; [1]", "value": 100},
      {"measurement": "Plant response rating, Groundsel", "setting": "common groundsel; [2]", "value": 100},
      {"measurement": "Plant response rating, Groundsel", "setting": "common groundsel; [3]", "value": 100},
      {"measurement": "Plant response rating, Bromegrass, Downy", "setting": "downy bromegrass; 62 g ai/ha, scale 0 to 100", "value": 20},
      {"measurement": "Plant response rating, Bromegrass, Downy", "setting": "downy bromegrass; [1]", "value": 50},
      {"measurement": "Plant response rating, Bromegrass, Downy", "setting": "downy bromegrass; [2]", "value": 60},
      {"measurement": "Plant response rating, Bromegrass, Downy", "setting": "downy bromegrass; [3]", "value": 80},
      {"measurement": "Plant response rating, Surinam Grass", "setting": "Surinam grass; 62 g ai/ha, scale 0 to 100", "value": 10},
      {"measurement": "Plant response rating, Surinam Grass", "setting": "Surinam grass; 125 g ai/ha, scale 0 to 100", "value": 50},
      {"measurement": "Plant response rating, Surinam Grass", "setting": "Surinam grass; [3]", "value": 70},
      {"measurement": "Oat, Wild plant response rating", "setting": "wild oat; [4]", "value": 50},
      {"measurement": "Plant response rating, Oat, Wild", "setting": "wild oat; [5]", "value": 50},
      {"measurement": "Plant response rating, Oat, Wild", "setting": "wild oat; [6]", "value": 50},
      {"measurement": "Plant response rating, Oat, Wild", "setting": "wild oat; [7]", "value": 30},
      {"measurement": "Plant response rating, Ragweed", "setting": "common ragweed; 62 g ai/ha, scale 0 to 100", "value": 0},
      {"measurement": "Plant response rating, Ragweed", "setting": "common ragweed; [1]", "value": 30},
      {"measurement": "Plant response rating, Ragweed", "setting": "common ragweed; [2]", "value": 40},
      {"measurement": "Plant response rating, Ragweed", "setting": "common ragweed; [3]", "value": 40},
      {"measurement": "Plant response rating, Black Mustard", "setting": "mustard; 62 g ai/ha, scale 0 to 100", "value": 20},
      {"measurement": "Plant response rating, Black Mustard", "setting": "mustard; [1]", "value": 70},
      {"measurement": "Plant response rating, Black Mustard", "setting": "mustard; [2]", "value": 75},
      {"measurement": "Plant response rating, Black Mustard", "setting": "mustard; [3]", "value": 100},
      {"measurement": "Plant response rating, Prickly Sida", "setting": "prickly sida; 62 g ai/ha, scale 0 to 100", "value": 10},
      {"measurement": "Plant response rating, Prickly Sida", "setting": "prickly sida; [1]", "value": 90},
      {"measurement": "Plant response rating, Prickly Sida", "setting": "prickly sida; [2]", "value": 90},
      {"measurement": "Plant response rating, Prickly Sida", "setting": "prickly sida; [3]", "value": 95},
      {"measurement": "Plant response rating, Purslane", "setting": "common purslane; 62 g ai/ha, scale 0 to 100", "value": 0},
      {"measurement": "Plant response rating, Purslane", "setting": "common purslane; [1]", "value": 20},
      {"measurement": "Plant response rating, Purslane", "setting": "common purslane; [2]", "value": 90},
      {"measurement": "Plant response rating, Purslane", "setting": "common purslane; [3]", "value": 100},
      {"measurement": "Ryegrass, Italian plant response rating", "setting": "Italian ryegrass; [4]", "value": 50},
      {"measurement": "Plant response rating, Ryegrass, Italian", "setting": "Italian ryegrass; [5]", "value": 40},
      {"measurement": "Plant response rating, Ryegrass, Italian", "setting": "Italian ryegrass; [6]", "value": 20},
      {"measurement": "Plant response rating, Ryegrass, Italian", "setting": "Italian ryegrass; [7]", "value": 20},
      {"measurement": "Canarygrass plant response rating", "setting": "canarygrass; [4]", "value": 50},
      {"measurement": "Plant response rating, Canarygrass", "setting": "canarygrass; [5]", "value": 40},
      {"measurement": "Plant response rating, Canarygrass", "setting": "canarygrass; [6]", "value": 40},
      {"measurement": "Plant response rating, Canarygrass", "setting": "canarygrass; [7]", "value": 40},
      {"measurement": "Chickweed plant response rating", "setting": "chickweed; [4]", "value": 100},
      {"measurement": "Plant response rating, Chickweed", "setting": "chickweed; [5]", "value": 100},
      {"measurement": "Plant response rating, Chickweed", "setting": "chickweed; [6]", "value": 100},
      {"measurement": "Plant response rating, Chickweed", "setting": "chickweed; [7]", "value": 100}
    ]}
  ]
}
